Assay results as given in patent US20240366602A1, “COMBINATION THERAPY OF APELIN RECEPTOR AGONIST AND GLP-1 RECEPTOR AGONIST FOR TREATING A DISEASE OR CONDITION ASSOCIATED WITH WEIGHT GAIN” (BioAge Labs, Inc., priority 2023, published 2024).
Where “and” joins values, the source holds several entries; their conditions need not be identical. Equal entries are not always repeated. Entries after “also recorded” stand apart in the source; their conditions may differ.

Experiments:
[1] = tested on: healthy volunteers aged≥65 years; assay: Phase 1b Part B (MD) 10-day bed rest muscle atrophy study; format: in vivo, human
Method: In Part B, of the 30 subjects enrolled, all of which are ≥65 years of age. […] In the multi-dose cohorts (1A, 1B, 1C), PD parameters for effects on changes in insulin sensitivity and muscle indices during a period of bed rest are measured and evaluated to better inform decisions regarding choice of dose and direction of further development.
In each of the 3 cohorts in Part B, 30 total subjects are enrolled to receive treatment in either Cohort 1A, Cohort 1B, or Cohort 1C. Cohort 1A includes 10 subjects who all receive placebo NS over a 1 hour infusion for 10 days on Days 1 through Day 10. […] Patients are at bed rest for the entire 10-day duration of treatment.
Vital signs was collected daily and include diastolic and systolic blood pressure and pulse. On Days −1, 1, 5, and 10, vital signs was collected at the following timepoints: predose (additionally temperature and respiratory rate), 0.25 h, 0.5 h, 0.75 h, 1 h, 2 h, 3 h, 4 h, 6 h, 8 h, and 12 h after the start of study drug infusion. Vital signs will also be collected on Day 10 (23 h) and before discharge on Day 12. • D. Safety laboratory tests include complete blood count, clinical chemistries, and urinalysis. • E. Samples are to be collected in the morning. Subjects are to be fasting from 10:00 PM onward (min 8 hours fast) each night but may drink as much water as requested. • F. ECGs are to be taken predose and immediately following the completion of the 1-hour infusion. On Day 11, an ECG will also be taken again 23 h after the start of the Day 10 study drug infusion. • G. AEs was recorded from the start time of the first consumption of heavy water until the end of the subject's participation in the study. At discharge from the unit, any ongoing AEs was documented in source and in EDC was followed until the event is resolved or stabilized. […] On Days 1, 5, and 10, PK samples were collected at the following timepoints: predose, 0.25 h, 0.5 h, 0.75 h, 1 h, 2 h, 3 h, 4 h, 6 h, 8 h, and 12 h after the start of study drug infusion. Samples will also be collected 24 h (Day 11), 48 h (Day 12), 72 h (Day 13), and 96 h (Day 14) after the start of the last infusion. PK samples were taken from the opposite arm used for the IV infusion. • J. Continuous cardiac ECG telemetry monitoring was used starting on Day 1 pre-dose and continuing through the end of dosing on Day 10. • K. Subjects were asked to remain in their beds, apart from using a wheelchair to be taken to the shower and they will shower seated. They will also use a wheelchair to get to and from the bathroom. When not in bed, subjects were in a wheelchair. • L. Subjects will wear the pneumatic compression cuffs the entire duration of bed rest, except for when in a wheelchair to use the bathroom and shower. • M. Muscle circumference, cross-sectional area, color flow analysis, AP diameter, and echo density of the vastus lateralis and gastrocnemius were measured by ultrasound. Ultrasound imaging must be conducted by the same technician throughout the study for all subjects. […]

[2] = 14-day IV toxicity study in the rat; format: in vivo
Method: The updated exposure margins considering the highest maximum exposures in rats and dogs are calculated as follows: • Maximum exposure in the rat (male) was in the 14-day IV study and at the 300 mg/kg dose, the AUClast is 1070 μg*hr/mL. • Maximum exposure in dogs occurred at the 300 mg/kg dose in the 9-month oral toxicity study and the AUClast is 1310*μg·hr/mL.

aged mice [3] = conditions: aged mice (24-month-old) vs age-matched controls, cited from earlier work
aged mice [4] = conditions: aged mice (18-month-old) first injected with a cardiotoxin; cited from earlier work
healthy adult subjects = assay: Phase 1 Part A (SAD) safety and tolerability; format: in vivo, human
Method: After a baseline period of 24 hours in the clinic, all subjects receive a LD, 1-hour infusion on Day 1. After a 48-hour wash-out period, in which PK and PK/PD data iscollected, subjects receive a 23-hour infusion (1-hour LD followed by a 22-hour maintenance dose). See FIG. 45 for the different dose levels in each SAD cohort. See e.g., Table 33 below. Part A is double-blinded. The cohorts of Part A is conducted sequentially starting with SAD cohort 1.
On Day 1 for Part A, subjects receive LD, 1-hour infusion. On Day 3, after a 48-hour washout period, subjects then receive a 23-hour infusion (1-hour LD followed by a 22-hour MD). No earlier than 24 hours after the end of infusion, subjects is discharged from the clinic on Day 5 (End of Treatment Period [EOTP]). A treatment protocol for the SAD cohorts of Part A is described below: • a. Predose assessments (vital signs and PK assessments) should be done within 30 min of the start of infusion. • b. Vital signs include diastolic and systolic blood pressure and pulse. In addition, temperature and respiratory rate should be collected on predose Day 1 and EOT Day 5. • c. […] AEs was recorded from the start time of the first BGE-105 or placebo study drug infusion until the end of the subject's participation in the study. […]
The Safety Analysis Set is used for safety analysis. Subjects is analyzed based on the actual treatment received.

[5] = 10-day bed rest, BGE-105 240 mg daily (cohort MD 1B)
[6] = 10-day bed rest, BGE-105 240 mg daily (cohort MD 1B), vastus lateralis ultrasound
[7] = 10 days of bed rest, ultrasound
[8] = BGE-105 240 mg once daily IV for 10 days vs placebo

What does the source list for COc1cccc(OC)c1-n1c(NS(=O)(=O)[C@@H](C)[C@H](C)c2ncc(C)cn2)nnc1-c1cncc(C)c1 [BGE-105, (2S,3R)—N-(4-(2,6-dimethoxyphenyl)-5-(5-methyl-3-pyridinyl)-4H-1,2,4-triazol-3-yl)-3-(5-methyl-2-pyrimidinyl)-2-butanesulfonamide]?
Muscle grade (progression), % change: baseline to D10 [1, 5]: −9%; Thigh circumference, % change: baseline to D10 [1, 5]: +0.8%; Cumulative protein synthesis, % change: baseline to D10 ([1]; 10-day bed rest, BGE-105 240 mg daily (cohort MD 1B), biopsy): 22%; AP diameter (thickness), % change: baseline to D10 [1, 6]: −8.0%; Cross-sectional area (CSA), % change: baseline to D10 [1, 6]: −5.7%; Muscle quality grade worsened (grade 1 to grade 2), number of volunteers ([1]; 10-day bed rest, ultrasound echo density, placebo 8 of 10): 1 of 11 and 1 out of 11 and (1 out of 11); Synthesis of myofibrillar structural proteins such as myosin and troponin ([1]; 10 days bed rest, D2O method and muscle biopsy): preserved compared to placebo; Muscle protein synthesis, muscle microbiopsy of vastus lateralis ([1]; 10 days of bed rest, bed rest-induced decrease, vs placebo): significantly ameliorated; also recorded: elevated rate of muscle protein synthesis; Improvement in thigh circumference relative to placebo ([1]; 10 days of bed rest, n=11): 100%; Improvement in vastus lateralis cross-sectional area relative to placebo [1, 7]: 58%; Improvement in vastus lateralis thickness relative to placebo [1, 7]: 73%; Reduction in loss of vastus lateralis cross-sectional area [1, 8]: > 50%; Reduction in loss of vastus lateralis muscle thickness [1, 8]: 75%; Mean normalized fraction synthetic rate ([1]; BGE-105 treated patients with elevated rate, after 10 days of bed rest): 0.18-2.2; Improvement in muscle dimension (muscle size by ultrasound) ([1]; Cohort 1B vs Cohort 1A): ~75%; Physical activity, step ratio by wearable activity device ([1]; Day 10 through Day 60 (post-bedrest), vs placebo): increase in physical activity; also recorded: more pronounced in the BGE-105 group; Reduction of the cross-sectional area of the Vastus Lateralis ([1]; after 10-day bed rest, mean percent change from baseline, placebo 19.47%): 8.041%; Reduction of vastus lateralis diameter ([1]; after 10-day bed rest, mean percent change from baseline, placebo 21.18%): 5.664%; Patients with elevated rate of muscle protein synthesis ([1]; after 10 days of bed rest, placebo 3 out of 10): 8 out of 11; Patients with elevated rate of muscle protein synthesis ([1]; after 10 days of bed rest, placebo 30%): about 72.7%; Increase in thigh circumference ([1]; after the 10-day bed rest period, placebo 6.438% reduction): 0.8%; Echo density measurements, increase ([1]; treatment group (Cohort 1B, 240 mg daily), placebo 6.4% decrease): 0.8%; NOAEL [2]: maximum dose tested; Voluntary motor activity (aged mice [3]; p=0.00228): statistically significant increase in voluntary motor activity; Grip strength (aged mice [3]; p=0.04): statistically significant improvement in grip strength; mRNA transcripts indicative of muscle regeneration (aged mice [4]): significantly higher levels of several mRNA transcripts which are indicative of muscle regeneration; Serious adverse events (healthy adult subjects; SAD cohorts Part A): no serious adverse events; Tolerability (healthy adult subjects; SAD cohorts, all doses including 240 mg/1440 mg): well tolerated
